Measured values published in US7915295B2, “Non-nucleotide reverse transcriptase inhibitors” (priority 2004, dated 2011).

Target: T1, HIV-1 reverse transcriptase L100I+K103N mutant (Human immunodeficiency virus type 1 group M subtype B, UniProt P03366, K702N/L699I)
T1 construct: made in house; host or cells: E. coli BL21 (DE3)
Assay: HIV-1 reverse transcriptase SPA (scintillation proximity) assay with mutant RT
Format: biochemical
Conditions: K103N double escape mutant
Procedure: Convenient reverse transcriptase assays use reverse transcriptase bearing key drug escape mutations prepared broadly as described in Unge et al Eur. J. Biochem. 269, 1670-1677 (2002).
For example a K103N mutant is prepared using this methodology and the primers
The L100I/K103 N mutant is prepared by mutation of L100 in the K103N enzyme:
Mutations are done in the HIVRT DH10 clone cDNA cloned into the pET11d expression vector. The mutations are generated by amplification of the mutated DNA with the help of the enzyme Pfu. Cloning was then performed in E. coli TOP10 cells and expression of mutated enzyme was performed in E. coli BL21 (DE3) cells after induction with IPTG.
The HIV-1 reverse transcriptase assay utilized a SPA (scintillation proximity assay) system relying on fluomicrospheres coated with the receptor molecule streptavidine (Flashplates, PerkinElmer Life Science) which is capable of binding radiolabelled ligands in the reaction solution. In the assay, a biotinylated primer (5′-GTC ATA GCT GTT TCC TG-3′) is pre-annealed with a DNA heterogeneous template (synthesized by GENSE) giving a sequence of 5′-CG UCUGGCAUUGCGAGCGGAUAA CM UUU CAC ACA GGA MC AGC UAU GAC-3′ in an RNase free environment. HIV-1 reverse transcriptase (such as L100I+K103N) catalyzed RNA-dependent DNA activity was measured in the presence of 50 mM Tris-HCl pH=8.0, 80 mM KCl, 10 mM MgCl2, 10 mM Dithiothreitol, 5 mg/ml BSA and 0.05% Nonidet P40 where the incorporation of tritium-labeled dGTP (Amersham, 35 Ci/mmol) and 11 uM of dNTP (dATP, dCTP and dTTP) was monitored at room temperature. The dGTP concentration was used at a Km value of 0.25 uM, 10 nM of RNA template was used and mutant RT (such as L100I+K103N) was used at 180 ng/ml in 100 ul reaction volume for 120 min reaction.
Compounds of the invention were assayed for HIV activity against the problematic L100I, K103N mutant in an invitro assay as outlined below. For reference, the closest prior art compound, cis-1-(4,7-difluoro-1,1a,2,7b-tetrahydro-cyclopropa[c]chromen-1-yl)-3-(5-phenoxy-pyridin-2-yl)-urea, example 20 of WO 02/070516 as depicted above, was assayed in the same system.
Work on `O=C(Nc1ccc(Oc2ccccc2)cn1)N[C@@H]1[C@@H]2COc3c(F)ccc(F)c3[C@@H]21` (relative stereo) [Prior art, cis-1-(4,7-difluoro-1,1a,2,7b-tetrahydro-cyclopropa[c]chromen-1-yl)-3-(5-phenoxy-pyridin-2-yl)-urea, reference compound] yielded an IC50 of 600 nM.
`NS(=O)(=O)c1ccc(Oc2ccc(NC(=O)N[C@@H]3[C@@H]4COc5c(F)ccc(F)c5[C@@H]43)nc2)cc1` [Example 1, N-[(1S,1aR,7bR)-4,7-difluoro-1,1a,2,7b-tetrahydrocyclopropa[c]chromen-1-yl]-N′-[5-(4-(sulfonamido)phenoxy)-2-pyridinyl]urea] showed an IC50 of 29 nM.
`CNC(=O)c1ccc(Oc2ccc(NC(=O)N[C@@H]3[C@@H]4COc5c(F)ccc(F)c5[C@@H]43)nc2)cc1` [Example 2, N-[(1S,1 aR,7bR)-4,7-difluoro-1,1a,2,7b-tetrahydrocyclopropa[c]chromen-1-yl]-N′-[5-(4-(N-methylcarboxyamido)phenoxy)-2-pyridinyl]urea] gave an IC50 of 26 nM.
Molecule `CS(=O)(=O)Nc1ccc(Oc2ccc(NC(=O)N[C@@H]3[C@@H]4COc5c(F)ccc(F)c5[C@@H]43)nc2)cc1` [Example 3, N-[(1S,1aR,7bR)-4,7-difluoro-1,1a,2,7b-tetrahydrocyclopropa[c]chromen-1-yl]-N′-[5-(4-(N-methylsulfonamido)phenoxy)-2-pyridinyl]urea] has an IC50 of 60 nM.
Molecule `Nc1ccc(Oc2ccc(NC(=O)N[C@@H]3[C@@H]4COc5c(F)ccc(F)c5[C@@H]43)nc2)cc1` [Example 4, N-[(1S,1aR,7bR)-4,7-difluoro-1,1a,2,7b-tetrahydrocyclopropa[c]chromen-1-yl]-N′-[5-(4-aminophenoxy)-2-pyridinyl]urea] has an IC50 of 70 nM.
Molecule `CS(=O)(=O)c1ccc(Oc2ccc(NC(=O)N[C@@H]3[C@@H]4COc5c(F)ccc(F)c5[C@@H]43)nc2)cc1` [Example 5, N-[(1S,1aR,7bR)-4,7-difluoro-1,1a,2,7b-tetrahydrocyclopropa[c]chromen-1-yl]-N′-[5-(4-(methylsulfon)phenoxy)-2-pyridinyl]urea] has an IC50 of 40 nM.
In the case of `CNC(=O)c1ccc(Oc2ccc(NC(=O)N[C@@H]3[C@@H]4COc5c(F)ccc(F)c5[C@@H]43)nc2)cn1` [Example 8, 5-({6-[({[(1S,1aR,7bR)-4,7-difluoro-1,1a,2,7b-tetrahydrocyclopropa[c]chromen-1-yl]amino}carbonyl)amino]-3-pyridinyl}oxy)-N-methyl-2-pyridinecarboxamide], the IC50 is reported as 70 nM.
In the case of `NC(=O)c1ccc(Oc2ccc(NC(=O)N[C@@H]3[C@@H]4COc5c(F)ccc(F)c5[C@@H]43)nc2)cc1` [Example 9, 4-({6-[({[(1S,1aR,7bR)-4,7-difluoro-1,1a,2,7b-tetrahydrocyclopropa[c]chromen-1-yl]amino}carbonyl)amino]-3-pyridinyl}oxy)benzamide], the IC50 is reported as 28 nM.
Molecule `NC(=O)c1ccc(Oc2ccc(NC(=O)N[C@@H]3[C@@H]4COc5c(F)ccc(F)c5[C@@H]43)nc2)cn1` [Example 10, 5-({6-[({[(1S,1aR,7bR)-4,7-difluoro-1,1a,2,7b-tetrahydrocyclopropa[c]chromen-1-yl]amino}carbonyl)amino]-3-pyridinyl}oxy)-2-pyridinecarboxamide] has an IC50 of 80 nM.
`NNC(=O)c1ccc(Oc2ccc(NC(=O)N[C@@H]3[C@H]4COc5c(F)ccc(F)c5[C@H]43)nc2)cc1` [Example 11, N-[(1S,1aS,7bS)-4,7-difluoro-1,1a,2,7b-tetrahydrocyclopropa[c]chromen-1-yl]-N′-{5-[4-(hydrazinocarbonyl)phenoxy]-2-pyridinyl}urea] showed an IC50 of 10 nM.
For `O=C(Nc1ccc(Oc2ccc(C(=O)NC3CC3)cc2)cn1)N[C@@H]1[C@H]2COc3c(F)ccc(F)c3[C@H]21` [Example 12, 4-({6-[({[(1S,1aS,7bS)-4,7-difluoro-1,1a,2,7b-tetrahydrocyclopropa[c]chromen-1-yl]amino}carbonyl)amino]-3-pyridinyl}oxy)-N-cyclopropylbenzamide], the IC50 was 27 nM.
With `CC(=O)Nc1ccc(Oc2ccc(NC(=O)N[C@@H]3[C@H]4COc5c(F)ccc(F)c5[C@H]43)nc2)cc1` [Example 13, N-[4-({6-[({[(1S,1aS,7bS)-4,7-difluoro-1,1a,2,7b-tetrahydrocyclopropa[c]chromen-1-yl]amino}carbonyl)amino]-3-pyridinyl}oxy)phenyl]acetamide] the IC50 was 40 nM.
`O=C(Nc1ccc(Oc2ccc(-n3cncn3)cc2)cn1)N[C@@H]1[C@@H]2COc3c(F)ccc(F)c3[C@@H]21` [Example 14, N-[(1S,1aR,7bR)-4,7-difluoro-1,1a,2,7b-tetrahydrocyclopropa[c]chromen-1-yl]-N′-{5-[4-(1H-1,2,4-triazol-1-yl)phenoxy]pyridin-2-yl}urea] showed an IC50 of 60 nM.

System: wild type HIV (HIVIIIB)
Assay: not given
Conditions: read-out: ED50 (the source's name); cited from earlier work
For `O=C(Nc1ccc(Oc2ccccc2)cn1)N[C@@H]1[C@@H]2COc3c(F)ccc(F)c3[C@@H]21` (relative stereo) [Prior art, cis-1-(4,7-difluoro-1,1a,2,7b-tetrahydro-cyclopropa[c]chromen-1-yl)-3-(5-phenoxy-pyridin-2-yl)-urea, reference compound], the EC50 is listed as 7 nM.
